Measurements taken from patent US20120156648A1, “APPARATUS AND METHOD FOR DELIVERING A THERAPEUTIC AGENT TO DENTAL TISSUE” (BUCKEYE DENTAL, LLC, priority 2010, published 2012).

Experiment: In vitro model of drug delivery: HP gel into extracted human teeth by MACROESIS vs diffusion, HP eluted into water measured by colorimetric kit / UV-Vis at 550 nm
Type: in vitro ADME
Conditions: for HP concentration in receiving medium (distilled water): below threshold of reliable detection, excluded from analysis
Method: MACROESIS™ drug delivery system uses an AC electrical field to push active pharmaceutical agents through biological membranes, such as peroxide gels into the layers of tooth enamel. Current methods of chair-side whitening involve applying a gel which is either self-activating, or activated by heat or UV. Another alternative involves custom trays containing the whitening agent obtained from a dentist used over a 7-10 day period at home (30 min to 2 hours per application). An in vitro model of drug delivery was used in a validity study investigating the delivery of a 35% Carbamide Peroxide gel into extracted human teeth by MACROESIS™.
Fourteen (14) freshly extracted human teeth without detectable caries or restoration were stored in distilled water at 4° C. and used within 1 month of extraction. Teeth were randomly assigned to the diffusion experimental group (6 teeth) or enhanced electrochemical delivery (MACROESIS™) experimental group (6 teeth). Two teeth were randomly assigned to a control group. The experiment was run in two rounds of six teeth each (3 from each treatment group) approximately two weeks apart to show repeatability of results.
The diffusion group received: 66±1 mg 6% HP gel applied evenly to the tooth surface for 20 minutes. The MACROESIS™ group received: 66±1 mg 6% HP gel applied evenly to the tooth surface for 20 minutes using the electrochemical drug delivery device and electrode (FIG. 5A-C). The control group contained one control tooth subjected to the diffusion treatment and one control tooth subjected to the MACROESIS™ treatment.
Following treatment, the teeth were rinsed twice in distilled water and dried. The outer surface of the teeth was covered with two layers of clear nail varnish to fill any defects. […]
The amount of H2O2 that diffused from the dentin was measured by a colorimetric oxidation-reduction reaction kit (HYDROGEN PEROXIDE CHEMets®, VACUettes® and Vacu-vials®, CHEMetrics, Inc., Calverton, Va.). HP concentration was measured by UV-Vis spectroscopy at 550 nm.

HP concentration in receiving medium (distilled water) (1-hour samples): < 0.1 PPM
HP concentration in receiving medium (distilled water) (48-hour samples): < 0.1 PPM
time in which the majority of the HP eluted from the teeth into the water (receiving medium removed at 1 hour, 24 hours and 48 hours): between 1 hour and 24 hours
SMILES: OO [HP, H2O2]
